From patent publication US20120207766A1, “INTRACELLULAR TOLL-LIKE RECEPTORS PATHWAYS AND AXONAL DEGENERATION” (priority 2009, published 2012)

Tests used:
MOG-myelitis = test: MOG peptide myelitis, neurological deficit scoring after systemic mianserin; type: in vivo, mice; settings: systemic administration; FIG. 12 panels B and C, n=8
Method: Induction of MOG peptide myelitis, and clinical evaluation. MOG peptide myelitis is elicited in 3 month old male mice by subcutaneous flank administration of 300 μg of rodent MOG peptide 35-55 emulsified in CFA. The mice receive 75 ng of pertussis toxin intraperitoneally on days 0 and 2, and are weighed and scored daily for neurological deficits by 2 blinded observers. Neurological scoring is on a 5 point scale: limp tail or waddling gait=1; limp tail and waddling gait=2; single limb paresis and ataxia 2.5; double limb paresis=3; single limb paralysis and paresis of a second limb=3.5; full paralysis of 2 limbs=4; and death (or sacrifice owing to inanition=5) (Bannerman et al, Brain 128:1877-1886 2005; Bannerman et al., Glia 55:57-64 2008; and Soulika et al, J Neurosci 29:14965-14979 2009).
Mianserin treatment. Mice are induced with MOG-myelitis as described. Groups of mice initially receive intraperitoneally 1-10 mg/kg/day. The start day can vary between days 5-12 (before disease onset) and 14-20 (after disease onset). Peripheral T cell responses and CNS infiltration are analyzed by flow cytometry. […] The mice are perfused with 4% paraformaldehyde and sections from lumbar spinal cord arestained with various antibodies and analyzed by confocal microscopy. […]

MOG-specific Th17 cell = test: Peripheral T cell responses (Th17) by flow cytometry in MOG-myelitis mice; type: in vivo; settings: systemic administration; FIG. 12 panel A, each bar a single mouse
Method: Mianserin treatment. Mice are induced with MOG-myelitis as described. Groups of mice initially receive intraperitoneally 1-10 mg/kg/day. The start day can vary between days 5-12 (before disease onset) and 14-20 (after disease onset). Peripheral T cell responses and CNS infiltration are analyzed by flow cytometry. Lumbar spinal cords are examined immunohistologically to characterize the degrees of axonal degeneration, secondary demyelination and CNS infiltration by peripheral immune cells during the various stages of MaG-myelitis. The mice are perfused with 4% paraformaldehyde and sections from lumbar spinal cord arestained with various antibodies and analyzed by confocal microscopy. In every step the degree of inflammation, axonal degeneration and demyelination is confirmed by using the following antibodies: CD11b (macrophages), CD3 (T cells), CD11c (dendritic cells), Glial fibrillary acidic protein (GFAP astroglia), Myelin Basic protein (MBP, for myelin), and SMI32 (hypophosphorylated NF—H, disrupted axons). To examine intracellular TLR and partner molecules antibodies against TLR3, 8 and 9, MyD88 and IRAK4, NALP1, ASC, active caspase-1, and IL-1 r3 are used.
Peripheral T cell responses. […]
Flow cytometry. […] Immunostained cells are analyzed using a Cyan FACS (Dako Cytomation).

Structure (SMILES): CN1CCN2c3ccccc3Cc3ccccc3C2C1 (centres unmarked) [mianserin]
- neurological symptoms associated with MOG-myelitis (MOG-myelitis): diminishes
- MOG-specific Th17 cell generation in the periphery (MOG-specific Th17 cell): does not affect
